According to publication PMC6099706, “Anti-Mycobacterium tuberculosis Activity of Esters of Quinoxaline 1,4-Di-N-Oxide” (Molecules : A Journal of Synthetic Chemistry and Natural …, 2018):
≈ marks a conversion by molar mass, not a printed value.

Key:
Experiment in all cases: microbe, parasite or virus in culture
Type in all cases: cell-based
Conditions in all cases: Mycobacterium tuberculosis
[1] = test system: M. tb H37Rv IR (isoniazid resistant)
[2] = test system: M. tb H37Rv RR (rifampicin resistant)
[3] = test system: M. tb H37Rv SR (streptomycin resistant)
[4] = test system: M. tb H37Rv ER (ethambutol resistant)

SMILES	MIC [1]	MIC [2]	MIC [3]	MIC [4]
CCOC(=O)c1ccc2c(c1)[n+]([O-])c(C(C)=O)c(C(F)(F)F)[n+]2[O-] [Compound T-006]	1.25 µg/mL (≈ 3.63 µM)	1.25 µg/mL (≈ 3.63 µM)	5 µg/mL (≈ 14.5 µM)	1.25 µg/mL (≈ 3.63 µM)
CCOC(=O)c1ccc2c(c1)[n+]([O-])c(C(=O)c1cccs1)c(C(F)(F)F)[n+]2[O-] [Compound T-011]	< 0.31 µg/mL	< 0.31 µg/mL	0.625 µg/mL (≈ 1.52 µM)	< 0.31 µg/mL
COC(=O)c1ccc2c(c1)[n+]([O-])c(C(=O)c1ccccc1)c(C(F)(F)F)[n+]2[O-] [Compound T-018]	0.62 µg/mL (≈ 1.58 µM)	0.625 µg/mL (≈ 1.59 µM)	1.25 µg/mL (≈ 3.19 µM)	0.62 µg/mL (≈ 1.58 µM)
COC(=O)c1ccc2c(c1)[n+]([O-])c(C(=O)OC)c(C)[n+]2[O-] [Compound T-022]	0.62 µg/mL (≈ 2.12 µM)	< 0.31 µg/mL	0.625 µg/mL (≈ 2.14 µM)	0.62 µg/mL (≈ 2.12 µM)
CC(C)OC(=O)c1ccc2c(c1)[n+]([O-])c(C(=O)c1cccs1)c(C(F)(F)F)[n+]2[O-] [Compound T-069]	0.62 µg/mL (≈ 1.45 µM)	1.25 µg/mL (≈ 2.93 µM)	1.25 µg/mL (≈ 2.93 µM)	1.25 µg/mL (≈ 2.93 µM)
CC(C)OC(=O)c1ccc2c(c1)[n+]([O-])c(C(=O)C(C)C)c(C(F)(F)F)[n+]2[O-] [Compound T-085]	< 0.31 µg/mL	0.625 µg/mL (≈ 1.62 µM)	1.25 µg/mL (≈ 3.24 µM)	< 0.31 µg/mL
CCCOC(=O)c1ccc2c(c1)[n+]([O-])c(C(=O)OC)c(C)[n+]2[O-] [Compound T-088]	0.62 µg/mL (≈ 1.94 µM)	< 0.31 µg/mL	0.625 µg/mL (≈ 1.95 µM)	< 0.31 µg/mL
CCCOC(=O)c1ccc2c(c1)[n+]([O-])c(C(=O)c1cccs1)c(C(F)(F)F)[n+]2[O-] [Compound T-089]	< 0.31 µg/mL	1.25 µg/mL (≈ 2.93 µM)	1.25 µg/mL (≈ 2.93 µM)	0.625 µg/mL (≈ 1.47 µM)
CO[C@H]1/C=C/O[C@@]2(C)Oc3c(C)c(O)c4c(O)c(c(/C=N/N5CCN(C)CC5)c(O)c4c3C2=O)NC(=O)/C(C)=C\C=C\[C@H](C)[C@H](O)[C@@H](C)[C@@H](O)[C@@H](C)[C@H](OC(C)=O)[C@@H]1C [RMP, rifampicin, reference compound]	< 0.06 µg/mL	> 2 µg/mL	< 0.06 µg/mL	< 0.06 µg/mL
